Results on seven compounds are retold here after PubChem BioAssay (NCI).

Where “and” joins values, the source holds several entries; their conditions need not be identical. Equal entries are not always repeated.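 Results reflect a 48-hour exposure of cells in 96-well plates to compound at five concentrations. Here, GI50 denotes the concentration required for 50% inhibition of growth. The concentration for full growth arrest is given as TGI.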

Some test systems named below: HT29 colon; RXF 393 renal; CAKI-1 renal; KM12 colon; UO-31 renal; HCC-2998 colon; EKVX NSCLC; BT-549 breast; M14 melanoma; OVCAR-3 ovarian.
Common to all, as to assay: DTP human tumour cell line panel, 48 h

For `O=C1C=CC(=C(c2ccccc2)c2ccc(O)cc2)C=C1`, the total growth inhibition concentration (TGI) came to 43.4 µM in the assay with HT29 colon; 30.5 µM with RXF 393 renal; 32.1 µM with CAKI-1 renal; 41.5 µM in the assay with KM12 colon; 29.5 µM with UO-31 renal; 63.9 µM in the assay on HCC-2998 colon. Also, the TGI with EKVX NSCLC was 35.9 µM; in the assay with BT-549 breast, 18.7 µM; in the assay on M14 melanoma, 91.6 µM; in the assay on OVCAR-3 ovarian, 32.5 µM.
Consider `COc1cc(/C=C2\CCC/C(=C\c3ccc(O)c(OC)c3)C2=O)ccc1O`, for which the GI50 with HT29 colon was 2.31 µM; in the assay with RXF 393 renal it was 1.43 µM; in the assay on CAKI-1 renal, 1.88 µM; with KM12 colon, 1.25 µM; in the assay on UO-31 renal it was 1.17 µM; in the assay with HCC-2998 colon, 1.67 µM. Besides, the GI50 with EKVX NSCLC was 2.1 µM; with BT-549 breast it was 1.76 µM; in the assay on M14 melanoma it was 1.92 µM; with OVCAR-3 ovarian, 1.56 µM. The TGI in the assay with HT29 colon is 18.8 µM and 5.68 µM; in the assay on RXF 393 renal, 6.17 µM and 2.94 µM; in the assay on CAKI-1 renal it was 8.46 µM and 5.99 µM; with KM12 colon, 5.83 µM and 2.62 µM; in the assay on UO-31 renal, 4.82 µM and 2.83 µM; in the assay on HCC-2998 colon, 8.09 µM and 3.04 µM. The TGI with EKVX NSCLC was 24.3 µM and 10.8 µM; in the assay with BT-549 breast, 14.2 µM and 3.28 µM; in the assay on M14 melanoma it was 6.79 µM and 5.61 µM; in the assay on OVCAR-3 ovarian it was 10.8 µM and 3.39 µM.
Regarding `Cn1c(=O)nc2n(-c3ccc(Cl)cc3)c3cc(Cl)ccc3nc-2c1=O`, the TGI was found to be 9.57 µM with HT29 colon; 9.25 µM in the assay with RXF 393 renal; 20.7 µM with CAKI-1 renal; 25.6 µM with KM12 colon; 24.2 µM with UO-31 renal; 14.1 µM with HCC-2998 colon. The total growth inhibition concentration (TGI) amounted to 17.7 µM with EKVX NSCLC, 7.17 µM with BT-549 breast, 4.21 µM in the assay with M14 melanoma and 4.19 µM with OVCAR-3 ovarian.
As for `CC1(C)N=C(N)N=C(N)N1c1ccc(Cl)cc1`, the GI50 is 1.19 µM with HT29 colon; 8.09 µM in the assay with RXF 393 renal; more than 100 µM with CAKI-1 renal; 6.68 µM in the assay on KM12 colon; more than 100 µM in the assay with UO-31 renal; 2.01 µM with HCC-2998 colon. The GI50 is 0.763 µM in the assay with EKVX NSCLC, 14.6 µM in the assay with BT-549 breast, 5.52 µM with M14 melanoma and 11.3 µM with OVCAR-3 ovarian. Besides, the concentration for total growth inhibition (TGI) was more than 100 µM in the assay on HT29 colon; more than 100 µM with RXF 393 renal; more than 100 µM in the assay on CAKI-1 renal; more than 100 µM in the assay with KM12 colon; more than 100 µM with UO-31 renal; 11.1 µM in the assay with HCC-2998 colon. The total growth inhibition concentration (TGI) with EKVX NSCLC, with BT-549 breast, in the assay with M14 melanoma and with OVCAR-3 ovarian was more than 100 µM in each case.
Take `CC1=C(C)C(=O)O[C@@H]([C@](C)(O)[C@]2(O)CC[C@@]3(O)[C@@H]4C[C@H](O)[C@]5(O)[C@@H](O)C=CC(=O)[C@]5(C)[C@H]4CC[C@]23C)C1`: the TGI in the assay on HT29 colon, with RXF 393 renal, in the assay with CAKI-1 renal, in the assay on KM12 colon, in the assay with UO-31 renal and in the assay on HCC-2998 colon was more than 100 µM each time. Further, the TGI in the assay with EKVX NSCLC, in the assay on BT-549 breast, in the assay on M14 melanoma and in the assay on OVCAR-3 ovarian was more than 100 µM in each case.
Take `COC1=C(C)C(=O)c2c(c(CCCl)c3n2CCC3OC(C)=O)C1=O` (stereo not given): the GI50 was 0.152 µM in the assay with HT29 colon; 0.167 µM in the assay on RXF 393 renal; 0.35 µM with CAKI-1 renal; 0.642 µM in the assay with KM12 colon; 0.241 µM in the assay on UO-31 renal; 0.204 µM with HCC-2998 colon. Also, the GI50 with EKVX NSCLC is 2.09 µM; in the assay on BT-549 breast, 0.149 µM; in the assay with M14 melanoma, 0.171 µM; in the assay with OVCAR-3 ovarian, 1.48 µM. For the same compound, the TGI stood at 1.89 µM in the assay with HT29 colon; 0.39 µM in the assay with RXF 393 renal; 2.15 µM in the assay on CAKI-1 renal; 3.05 µM with KM12 colon; 0.739 µM in the assay with UO-31 renal; 0.582 µM in the assay with HCC-2998 colon. For the same compound, the TGI with EKVX NSCLC was 7.3 µM; with BT-549 breast, 0.652 µM; in the assay on M14 melanoma it was 0.592 µM; in the assay with OVCAR-3 ovarian, 5.43 µM.
Take `CC(C)(C)CC(C)(C)c1ccc(O)c(Cc2ccc(Cl)cc2Cl)c1`: the GI50 in the assay with HT29 colon is 1.67 µM; with RXF 393 renal, 1.16 µM; in the assay with CAKI-1 renal, 1.31 µM; with KM12 colon, 1.63 µM; with UO-31 renal, 1.5 µM; with HCC-2998 colon it was 1.79 µM. In addition, the GI50 with EKVX NSCLC is 1.57 µM; in the assay on BT-549 breast, 2.03 µM; with M14 melanoma it was 1.61 µM; with OVCAR-3 ovarian it was 1.74 µM. The TGI was 3.03 µM in the assay with HT29 colon; 2.41 µM in the assay on RXF 393 renal; 2.58 µM in the assay with CAKI-1 renal; 3 µM in the assay on KM12 colon; 2.83 µM in the assay with UO-31 renal; 3.25 µM with HCC-2998 colon. Besides, the TGI turned out to be 2.94 µM in the assay with EKVX NSCLC, 3.52 µM with BT-549 breast, 3.08 µM with M14 melanoma and 3.11 µM in the assay with OVCAR-3 ovarian.
